Where “and” joins values, the source holds several entries; their conditions need not be identical. Equal entries are not always repeated. Peptide text beside a SMILES is read from it.
Assays:
[1] = tested on: GFAP and Iba-1 positive cells; assay: neuro-inflammation: GFAP and Iba-1 positive cells in hippocampus; assay type: in vivo, mice; conditions: 5 fields, 14 days' treatment
Method: (§1) C57/BL6 adult mice were treated for 14 days with daily intraperitoneal injection of saline solution or peptides at a dose of 3 nmol/g (6-10 animals per experimental group). The animals were maintained in an enclosure at 25 ± 2 °C with an alternating light/dark cycle of 12 hours and had free access to water and food in the form of pellets (standard diet).
After the sacrifice of the treated animal, a portion of liver and a brain hemisphere were fixed in 10% formalin for 48 hours, and included in paraffin. From each block of paraffin, serial sections 5/6µm thick were obtained. The sections were then stained with haematoxylin-eosin or processed through immunohistochemistry.
Subsequently, to evaluate the presence of neuro-inflammation, 5 different fields of the hippocampus were considered to verify any presence of GFAP and Iba-1 positive cells.

ADAM10/AP2 complex [2] = target: T1, ADAM10/AP2 complex (Rattus norvegicus, UniProt P62944); assay: co-immunoprecipitation of ADAM10 with AP2 subunits in primary cultures of hippocampal neurons; assay type: cell-based
T1 construct: endogenous in cells; host or cells: primary hippocampal neurons of rat embryos, DIV14
Method: The primary cultures were prepared from hippocampi of rat embryos as described in [20]. The cultures were grown in media containing Neurobasal (Life Technologies), B27 2% (Life Technologies), GlutaMAX 1% (Life Technologies) and Penicillin/Streptomycin 1% (Pen/Strep; Life Technologies), a 37 °C with 95% humidity and 5% CO2 for 14 days. The cells were treated by diluting the peptides in the complete growth medium, at a final concentration of 1 µM. The treatment was performed for 30 minutes at 37°C, then the neurons were lysed.
(§2) For the co-immunoprecipitation experiments, aliquots of 40-100 µg of lysate were incubated at 4°C in RIA 1X buffer (NaCl 200 mM, EDTA 10 mM, Na2HPO4 10 mM, Nonidet P-40, 0.5% and 0.1% SDS) in a final volume of 150 µl with 1-2 µg of antibody. The following day the protein complex A/G (Santa Cruz Biotechnology) was added, conjugated with agarose marbles, and the incubation was continued for 2 hours. After three washes with RIA buffer the samples were loaded onto SDS-PAGE and analysed through Western Blot.
(§3) The quantization of the Western Blot analyses was performed through an image analysis program (ImageLab -BioRad). The levels of proteins were expressed as optical density (OD) related to the different measurements and were normalized on respective tubulin levels.
After 30 minutes, the cells were processed and the cell lysate was used for performing the co-IP analyses.

[3] = tested on: T2, ADAM10/AP2 complex (Rattus norvegicus); assay: co-immunoprecipitation of ADAM10 with AP2 (α-adaptin) in acute hippocampal slices; assay type: cell-based; conditions: 10 µM, 30 min
T2 construct: endogenous in cells; host or cells: primary hippocampal neurons of rat embryos, DIV14
Method: (§4) The acute hippocampal slices were obtained from rat brain. After carefully removing the meninges, the hippocampus was isolated and dissected using the McIlwain tissue chopper. The hippocampal slices were then transferred into supports containing Krebs buffer, in the presence of a constant flow of 95% O2 and 5% CO2 5% (v/v). The acute slices were kept for 45 min at ambient temperature before proceeding with treatment with the peptide.
(§5) For the treatments of the acute hippocampal slices, all the peptides were diluted in Krebs buffer at a concentration of 10µM. The treatments were performed for 30 minutes and subsequently the sample was immediately frozen.
as §2, §3
(§6) The samples were then processed, and the total homogenate was used to evaluate the interaction levels between ADAM10 and the complex AP2. The co-immunoprecipitation experiment (co-IP), performed using an anti-ADAM10 antibody, made it possible to verify that two of the three peptides (PEP2 (SEQ ID NO:2) and PEP3 (SEQ ID NO:1)) were able to interfere with the interaction between ADAM10 and α-adaptin, one of the subunits that constitutes the complex AP2 (Figure 1A).

ADAM10/AP2 complex [4] = target: T1, ADAM10/AP2 complex; assay: as above; assay type: cell-based; conditions: 10 µM, 30 minutes
Method: as §4, §5, §2, §3, §6

[5] = Novel Object Recognition Test (NORT), C57BL/6 mice; assay type: in vivo; conditions: 14 days' treatment
Method: as §1
After 14 days of treatment the animals were subjected to the Novel Object Recognition Test (NORT). Such test is structured in three phases: habituation, familiarization and testing. In the first phase, the animal is placed in an empty arena and left free to explore the environment for 5 minutes. The day after, during the familiarization phase, the animal is placed in the same arena in the presence of two objects, identical in shape and size, for 10 minutes. Then the time spent by the animal exploring the individual object is recorded. On the third day, the animal is placed in the area in the presence of an identical object to that used in the familiarization phase and a new one. In this phase the difference in time spent by the animal exploring the familiar object and the new object is evaluated. […] In both phases of the test, the objects are positioned symmetrically and opposite inside the arena, and all the sessions are recorded with the aid of a video camera. […]

[6] = blood count and platelet count after 14 days' treatment; assay type: in vivo, mice; parameters: key to Aggregate s: +, ++, +++ considering the presence of platelet aggregates detected in the blood smear that make the analysis difficult; +, ++, +++ considering the presence of platelet aggregates detected in the blood smear that make the analysis difficult; +, ++, +++ considering the presence of platelet aggregates detected in the blood smear that make the analysis difficult; key to Estimate Plt: A= appropriate platelet estimate
Method: as §1
The blood, collected through cardiac puncture, was analysed with a laser counter (ADVIA 120, Siemens) using specific software for the murine species. From each sample a blood smear was prepared, stained with the May Grünwald-Giemsa method, and used for the morphological analysis of the leukocytes, the red blood cells and the platelet estimate. After the automatic counting of the cells and the preparation of the smear, all the samples were centrifuged and the plasma was transferred into separate test tubes. The analysis of the plasma samples was performed through automatic spectrophotometer (ILAB-300, Instrumentation Laboratory). All the results were compared with the values provided by the company Charles River for mice of the same strain and age.
The range values are provided by Charles River for C57BL mice aged between 56-70 days, whose blood was collected by cardiac puncture after euthanasia.

[7] = primary cultures of neurons, 1µM, 30 min
[8] = primary hippocampal neurons DIV 14, 1 µM, 30 minutes
[9] = individual animal, 14 days, daily intraperitoneal 3 nmol/g

T1 sequence (P18484 whole entry): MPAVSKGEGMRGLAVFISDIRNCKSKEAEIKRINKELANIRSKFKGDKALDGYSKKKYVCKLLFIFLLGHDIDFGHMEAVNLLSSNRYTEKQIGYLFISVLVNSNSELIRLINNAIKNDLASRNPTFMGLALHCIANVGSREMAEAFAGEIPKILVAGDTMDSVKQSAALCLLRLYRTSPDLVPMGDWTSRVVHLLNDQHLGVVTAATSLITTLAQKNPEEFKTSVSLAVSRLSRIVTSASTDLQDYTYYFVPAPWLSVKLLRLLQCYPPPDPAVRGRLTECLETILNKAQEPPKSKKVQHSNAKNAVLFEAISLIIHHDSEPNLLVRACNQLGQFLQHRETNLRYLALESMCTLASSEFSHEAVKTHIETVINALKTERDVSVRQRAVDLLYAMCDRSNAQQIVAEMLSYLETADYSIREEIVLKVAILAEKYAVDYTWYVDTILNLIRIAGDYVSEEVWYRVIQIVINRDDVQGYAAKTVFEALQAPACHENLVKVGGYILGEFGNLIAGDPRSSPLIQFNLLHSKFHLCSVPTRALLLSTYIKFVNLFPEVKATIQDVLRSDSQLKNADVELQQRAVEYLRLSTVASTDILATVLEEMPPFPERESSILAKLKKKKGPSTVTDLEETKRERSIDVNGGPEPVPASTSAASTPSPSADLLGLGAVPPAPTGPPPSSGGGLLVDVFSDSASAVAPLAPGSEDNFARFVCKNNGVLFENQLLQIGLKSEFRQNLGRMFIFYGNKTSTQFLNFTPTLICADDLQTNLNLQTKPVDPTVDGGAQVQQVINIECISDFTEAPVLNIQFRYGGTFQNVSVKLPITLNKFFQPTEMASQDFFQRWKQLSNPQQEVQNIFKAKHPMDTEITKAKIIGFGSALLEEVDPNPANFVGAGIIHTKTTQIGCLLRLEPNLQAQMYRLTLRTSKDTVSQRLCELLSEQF
T1 sequence (P62744 whole entry, further chain): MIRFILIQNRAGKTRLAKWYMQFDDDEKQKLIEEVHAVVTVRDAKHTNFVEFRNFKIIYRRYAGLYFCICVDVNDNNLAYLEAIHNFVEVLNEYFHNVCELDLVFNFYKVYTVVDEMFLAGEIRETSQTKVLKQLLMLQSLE
T1 sequence (P84092 whole entry, further chain): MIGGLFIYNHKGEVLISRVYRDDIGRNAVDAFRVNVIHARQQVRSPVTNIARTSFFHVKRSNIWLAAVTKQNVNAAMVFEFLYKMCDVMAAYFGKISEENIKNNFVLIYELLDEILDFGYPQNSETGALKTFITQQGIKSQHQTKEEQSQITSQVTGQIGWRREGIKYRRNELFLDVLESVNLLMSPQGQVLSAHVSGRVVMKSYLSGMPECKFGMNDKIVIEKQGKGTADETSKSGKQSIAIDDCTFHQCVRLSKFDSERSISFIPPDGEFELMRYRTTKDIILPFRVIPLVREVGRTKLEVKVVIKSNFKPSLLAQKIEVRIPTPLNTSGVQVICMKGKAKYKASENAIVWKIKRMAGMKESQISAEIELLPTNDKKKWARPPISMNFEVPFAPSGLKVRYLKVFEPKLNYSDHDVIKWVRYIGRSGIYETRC
T1 sequence (P62944 whole entry): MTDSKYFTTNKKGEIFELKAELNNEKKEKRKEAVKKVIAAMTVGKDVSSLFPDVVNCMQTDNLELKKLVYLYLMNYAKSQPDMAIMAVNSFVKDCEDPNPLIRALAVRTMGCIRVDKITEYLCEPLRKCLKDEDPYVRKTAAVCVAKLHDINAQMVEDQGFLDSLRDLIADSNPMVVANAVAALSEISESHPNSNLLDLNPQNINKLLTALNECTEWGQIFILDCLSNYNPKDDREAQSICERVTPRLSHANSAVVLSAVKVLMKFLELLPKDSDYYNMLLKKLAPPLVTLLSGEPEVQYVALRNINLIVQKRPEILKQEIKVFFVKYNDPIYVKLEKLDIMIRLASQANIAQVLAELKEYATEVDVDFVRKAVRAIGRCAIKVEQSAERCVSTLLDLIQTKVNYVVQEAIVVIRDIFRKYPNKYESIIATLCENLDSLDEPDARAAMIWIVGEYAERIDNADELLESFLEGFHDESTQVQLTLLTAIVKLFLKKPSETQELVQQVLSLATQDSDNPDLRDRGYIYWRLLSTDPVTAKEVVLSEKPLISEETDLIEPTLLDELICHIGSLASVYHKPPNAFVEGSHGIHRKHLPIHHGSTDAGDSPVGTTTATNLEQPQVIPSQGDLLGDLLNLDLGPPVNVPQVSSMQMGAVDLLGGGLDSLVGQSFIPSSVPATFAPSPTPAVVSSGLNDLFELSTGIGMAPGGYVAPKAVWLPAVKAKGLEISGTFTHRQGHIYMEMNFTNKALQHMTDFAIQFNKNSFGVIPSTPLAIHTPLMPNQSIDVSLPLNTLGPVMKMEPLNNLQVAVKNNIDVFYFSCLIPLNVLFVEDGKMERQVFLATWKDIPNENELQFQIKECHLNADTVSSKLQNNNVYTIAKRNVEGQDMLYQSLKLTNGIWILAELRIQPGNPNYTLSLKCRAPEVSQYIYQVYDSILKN
T2 sequence (P18484 whole entry): as the sequence (P18484 whole entry) above
T2 sequence (P62744 whole entry, further chain): as the sequence (P62744 whole entry, further chain) above
T2 sequence (P84092 whole entry, further chain): as the sequence (P84092 whole entry, further chain) above
T2 sequence (P62944 whole entry, further chain): as the sequence (P62944 whole entry) above

N=C(N)NCCC[C@H](NC(=O)CNC(=O)[C@@H](N)Cc1ccc(O)cc1)C(=O)N[C@@H](CCCCN)C(=O)N[C@@H](CCCCN)C(=O)N[C@@H](CCCNC(=N)N)C(=O)N[C@@H](CCCNC(=N)N)C(=O)N[C@@H](CCC(N)=O)C(=O)N[C@@H](CCCNC(=N)N)C(=O)N[C@@H](CCCNC(=N)N)C(=O)N[C@@H](CCCNC(=N)N)C(=O)NCC(=O)NCC(=O)N[C@@H](CO)C(=O)NCC(=O)N[C@@H](CCC(N)=O)C(=O)N1CCC[C@H]1C(=O)N1CCC[C@H]1C(=O)N[C@@H](CCCNC(=N)N)C(=O)N[C@@H](CCC(N)=O)C(=O)N[C@@H](CCCNC(=N)N)C(=O)N1CCC[C@H]1C(=O)N[C@@H](CCCNC(=N)N)C(=O)NCC(=O)O [PEP3] (H-YGRKKRRQRRRGGSGQPPRQRPRG-OH)
number of GFAP positive cells [1]: 37.17±3.54
number of Iba-1 positive cells [1]: 7.33±1.63
PEP/inPEP OD, ADAM10/AP2 complex, µ2 (ADAM10/AP2 complex [2]; [7]): 22.43 ± 1.25%
PEP/inPEP OD, ADAM10/AP2 complex, α-adaptin (ADAM10/AP2 complex [2]; [7]): 10.84 ± 5.61%
reduction in the levels of interaction between ADAM10 and the complex AP2, subunit µ2 (ADAM10/AP2 complex [2]; [8]): 78%
reduction in the levels of interaction between ADAM10 and the complex AP2, subunit α-adaptin (ADAM10/AP2 complex [2]; [8]): 89%
PEP/inPEP ratio of optical density (OD), ADAM10/AP2 complex (α-adaptin) [3]: 37.40 ± 21.76%
reduction of the interaction between ADAM10 and α-adaptin (ADAM10/AP2 complex [4]): 62.6%
time exploring the new object [5]: 63.52 ± 4.69%
(Ht) ([6]; group mean): 46.2%
Hb ([6]; group mean): 11.8 g/dL
Mean Corpuscula r Hb (MCH) ([6]; group mean): 13.5 pg
Mean Corpuscula r Hb Conc. MCHC ([6]; group mean): 25.6%
Platelet count ([6]; group mean): 999000 µL⁻¹
Red blood cells ([6]; group mean): 8.74e+06 µL⁻¹
Red cell distribution width (RDW) ([6]; group mean): 19.5%
Vol. Mean Corp. Vol. (MCV) ([6]; group mean): 52.9 fL
(Ht) ([6]; group median): -46.9%
Hb ([6]; group median): -11.9 g/dL
Mean Corpuscula r Hb Conc. MCHC ([6]; group median): -25.8%
Platelet count ([6]; group median): -1.082e+06 µL⁻¹
Red blood cells ([6]; group median): -8.8e+06 µL⁻¹
Red cell distribution width (RDW) ([6]; group median): -19.7%
Vol. Mean Corp. Vol. (MCV) ([6]; group median): -53.1 fL
Estimate Plt ([6]; individual animal, blood smear, first part of cell): A
Aggregate s ([6]; individual animal, blood smear, second part of cell): +++
(Ht) [6, 9]: 41.5% and 47.4% and 48.5% and 48% and 46.3% and 45.7%
Hb [6, 9]: 10.9 g/dL and 11.7 g/dL and 12.5 g/dL and 11.9 g/dL (3×)
Mean Corpuscula r Hb (MCH) [6, 9]: 13.4 Pg (2×) and 13.8 Pg and 13.3 Pg and 13.5 Pg and 13.6 Pg
Mean Corpuscula r Hb Conc. MCHC [6, 9]: 26.3% and 24.7% and 25.8% and 24.8% and 25.7% and 26%
Platelet count [6, 9]: 861000 µL⁻¹ and 711000 µL⁻¹ and 1.333e+06 µL⁻¹ and 391000 µL⁻¹ and 1.302e+06 µL⁻¹ and 1.394e+06 µL⁻¹
Red blood cells [6, 9]: 8.14e+06 µL⁻¹ and 8.75e+06 µL⁻¹ and 9.04e+06 µL⁻¹ and 8.94e+06 µL⁻¹ and 8.84e+06 µL⁻¹ and 8.72e+06 µL⁻¹
Red cell distribution width (RDW) [6, 9]: 18.7% and 19.3% and 19.9% (2×) and 19.7% (2×)
Vol. Mean Corp. Vol. (MCV) [6, 9]: 51 fL and 54.2 fL and 53.7 fL (2×) and 52.4 fL (2×)

From patent publication EP3727588B1, “ACTIVATOR PEPTIDES OF THE ENZYME ADAM 10 AND RELATED USES IN THE TREATMENT OF ALZHEIMER'S DISEASE” (UNIVERSITA' DEGLI STUDI DI MILANO, priority 2017, dated 2019)
